From patent US20120029187A1, “HALOALKYLSULFONANILIDE DERIVATIVE” (Nissan Chemical Industries, Ltd., priority 2009, published 2012)

Experiments:
Assay type in all cases: in vivo
[1] = tested on: barnyardgrass; experiment: Test Example 1: herbicidal effects in preemergence treatment under submerged conditions; conditions: dose 2.52 g/a
How it was run: (§1)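 Weed seeds and 2.5-leaf rice seedlings shared each flooded cup of alluvial soil. Dosing, expressed as g per are, was by pouring water-diluted emulsifiable concentrate onto the surface on sowing day. Mortality was graded 0 to 5 after three weeks' growth.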

[2] = tested on: bulrush; experiment: as above; conditions: dose 2.52 g/a
How it was run: as §1

[3] = tested on: ducksalad; experiment: as above; conditions: dose 2.52 g/a
How it was run: as §1

[4] = tested on: Italian ryegrass; experiment: Test Example 4: herbicidal effect in foliage treatment; conditions: dose 6.3 g/a, three weeks after application
How it was run: (§2)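 Foliar spray, post-emergence: 14-day-old greenhouse plants (25–30° C, diluvial soil) treated with water-diluted EC at set g/a doses; visual herbicidal score at 3 wk post-application.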

[5] = tested on: beadstraw; experiment: as above; conditions: dose 6.3 g/a, three weeks after application
How it was run: as §2

[6] = tested on: common chickweed; experiment: as above; conditions: dose 6.3 g/a, three weeks after application
How it was run: as §2

[7] = tested on: giant foxtail; experiment: as above; conditions: dose 6.3 g/a, three weeks after application
How it was run: as §2

[8] = tested on: posumbu knotweed; experiment: as above; conditions: dose 6.3 g/a, three weeks after application
How it was run: as §2

[9] = tested on: redroot pigweed; experiment: as above; conditions: dose 6.3 g/a, three weeks after application
How it was run: as §2

[10] = tested on: water foxtail; experiment: as above; conditions: dose 6.3 g/a, three weeks after application
How it was run: as §2

[11] = tested on: barnyardgrass; experiment: Comparative Example 1: herbicidal effects in preemergence treatment on barnyardgrass under submerged conditions; conditions: applied to water surface on the day of seeding, three weeks after application
Excerpt: Comparative Example 1 Test on the Herbicidal Effects in Preemergence Treatment on Barnyardgrass Under Submerged Conditions Alluvial soil was put in 1/30000-are styrol cups and admixed with water so that it was submerged at a depth of 4 cm. In each cup, seeds of barnyardgrass were sown, and on the same day as the seeding, emulsifiable concentrates containing compounds of the present invention formulated in accordance with Formulation Example 2 were applied to the water surfaces at predetermined doses after diluted with water. The cups were placed in a greenhouse at 25 to 30° C. to grow the plants. Three weeks after the application, the herbicidal effects against barnyardgrass were determined on the following evaluation scale. The symbol A in the table means barnyardgrass.

CC(C)COC(=O)N(c1ccccc1CN1COCCC1=O)S(=O)(=O)C(F)(F)F [II-3]
A: barnyardgrass, herbicidal effect (evaluation scale 0-5) [1]: 5 (mortality of 90% or above (nearly complete death))
B: bulrush, herbicidal effect (evaluation scale 0-5) [2]: 5 (mortality of 90% or above (nearly complete death))
C: ducksalad, herbicidal effect (evaluation scale 0-5) [3]: 5 (mortality of 90% or above (nearly complete death))
H: Italian ryegrass, herbicidal effect [4]: 3 (mortality of at least 40% and less than 70%)
O: beadstraw, herbicidal effect [5]: 3 (mortality of at least 40% and less than 70%)
N: common chickweed, herbicidal effect [6]: 3 (mortality of at least 40% and less than 70%)
E: giant foxtail, herbicidal effect [7]: 5 (mortality of 90% or above (nearly complete death))
M: posumbu knotweed, herbicidal effect [8]: 0 (mortality of less than 5% (almost ineffective))
K: redroot pigweed, herbicidal effect [9]: 0 (mortality of less than 5% (almost ineffective))
G: water foxtail, herbicidal effect [10]: 5 (mortality of 90% or above (nearly complete death))
herbicidal effect, A (barnyardgrass) ([11]; dose 0.16 g/a): 5 (mortality of 90% or above (nearly complete death))
herbicidal effect, A (barnyardgrass) ([11]; dose 0.64 g/a): 5 (mortality of 90% or above (nearly complete death))
herbicidal effect, A (barnyardgrass) ([11]; dose 2.52 g/a): 5 (mortality of 90% or above (nearly complete death))
